Experimental data taken from patent publication US20040265917A1, “Methods of measuring the ability of a test compound to inactivate a biological target in cells of a subject” (priority 2003, published 2004).

Assays:
MetAP-2 [1] = target: T1, MetAP-2 (Rattus norvegicus, UniProt P38062); assay: Free MetAP-2 ELISA (streptavidin plates, Compound 1 capture) in white blood cells and tissues of rats after a single dose, Phase IIa/IIb; assay type: in vivo, Sprague-Dawley rats
T1 construct: percentage of free MetAP-2 remaining in white blood cells, liver, spleen, lymph nodes and thymus; from tissue; host or cells: white blood cells, liver, spleen, lymph nodes, thymus of Sprague-Dawley rats
T1 sequence (P38062 whole entry): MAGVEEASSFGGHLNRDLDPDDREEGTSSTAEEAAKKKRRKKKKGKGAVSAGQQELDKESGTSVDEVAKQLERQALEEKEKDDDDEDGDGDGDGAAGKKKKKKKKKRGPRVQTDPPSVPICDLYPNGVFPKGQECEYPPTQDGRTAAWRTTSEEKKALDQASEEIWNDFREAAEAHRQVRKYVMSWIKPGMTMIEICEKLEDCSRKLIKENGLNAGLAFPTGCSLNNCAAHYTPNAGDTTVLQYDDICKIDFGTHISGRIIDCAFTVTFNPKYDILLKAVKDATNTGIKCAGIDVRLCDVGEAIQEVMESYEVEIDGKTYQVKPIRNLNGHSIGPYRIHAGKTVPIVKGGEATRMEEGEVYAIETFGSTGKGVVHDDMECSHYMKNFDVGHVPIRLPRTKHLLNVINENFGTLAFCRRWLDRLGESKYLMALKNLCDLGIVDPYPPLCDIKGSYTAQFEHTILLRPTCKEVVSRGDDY
Protocol: Determination of Free MetAP-2 in Rat White Blood Cell Lysates and tissues Following Administration of Compound 2
Preparation of WBC Lysates
Spleen Homogenization and Lysis Procedure
Liver, Thymus and Lymph Nodes Homogenization and Lysis Procedure
Treat 20 μL of each lysate dividing into polypropylene 96-well plates: +Compound 2 Samples (Background Controls): Dilute 40 mM Compound 2 stock 1:4000 for a 10 μM working stock and add 2 μL to background samples for a final concentration of 1 μM Compound 2.
Dilute 40 mM Compound 1 stock 1:4000 for a 10 μM working stock and add 2 μL of diluted to the samples and 5 μL to the rMetAP2 standards for a final concentration of 1 μM; cover, tap gently to mix, and incubate for 1 hr at room temperature without shaking.
Remove the streptavidin plates from 4° C. at least 30 min prior to use Dilute each of the samples 1:10 (180 μL into the 20 μL sample) with PBST and mix well.
Transfer 20 μL and 40 μL aliquots of the diluted samples to streptavidin plates, adding to 30 μL and 10 μL of PBST (for total volumes of 50 μL each), and mix well: duplicate aliquots of each volume for the signal samples (signal sample=−Compound 2) and single aliquots of each volume for the background samples (background samples=+Compound 2).
Cover and incubate the plates at room temperature on plate shaker for 1 hr at medium speed.
Wash 3 times manually with 50 μL of 2% (w/v) SDS. Flick plate briskly over sink to remove 2% SDS. Tap on napkin to blot.
Add 50 μL of 1:500 anti-MetAP2 antibody in PBST using 12 channel pipette, so triplicates receive antibody at same time, cover and incubate at room temp. on plate shaker for 1 hr at medium speed. One plate requires 5 mL of PBST plus 10 μL of anti-MetAP2 antibody.
Add 50 μL of 1:5000 goat anti-rabbit-HRP antibody in PBST using the 12 channel pipette, cover and incubate at room temperature on plate shaker for 1 hr at medium speed. One plate requires 5 mL of PBST plus 1 μL anti-rabbit-HRP antibody. Aliquot 50 μL per well.
10 minutes after adding the TMB substrate, add 100 μL of 1 N H2SO4 and then measure the absorbance at 450 nm.
The purpose of this study was to determine the percentage of free MetAP-2 remaining in white blood cells, liver, spleen, lymph nodes and thymus as a pharmacodynamic marker of Compound 2 activity after a single dose was administered to Sprague-Dawley rats.
A repeat examination of MetAP-2 inhibition in WBCs was conducted with various dose levels of Compound 2, administered either IV or PO in female SD rats. In addition, thymus and liver were collected and snap frozen in liquid nitrogen for MetAP-2 analysis.
At 4, 24, 48, 72, 96, 120 hours post dose whole blood (≧3.0 mL) was taken from anesthetized animals (isoflurane inhalation to effect) via cardiac puncture, using a 20 gauge needle. Blood was immediately placed into EDTA tubes and stored at 4-8° C.
After blood collection animals were sacrificed by CO2 inhalation. The entire thymus and left lateral lobe of the liver were minced, placed into separate tissue cassettes, and snap frozen in liquid nitrogen for future MetAP-2 analysis.
To characterize MetAP-2 turnover in tissues after a single oral administration of Compound 2 and to determine if any sex difference existed.
Blood and tissue samples were collected from SD rats after receiving a single dose of Compound 2. Inhibition of MetAP-2 by Compound 2 was monitored using an ELISA designed to measure the amount of free MetAP-2 in a sample. Cells were lysed and then treated with Compound 1. Compound 1 covalently binds to the active site of MetAP-2 molecules that have not already been derivatized by Compound 2. The resulting biotinylated MetAP-2 is captured onto immobilized streptavidin, then detected with an anti-MetAP-2 antibody and an enzyme-linked secondary antibody. Phase I was used as a pilot study to determine if MetAP-2 inhibition could be monitored in female SD rat white blood cell (WBC) lysates after a single 30 mg/kg dose of Compound 2 administered IV, IP, PO or SC. […]

MetAP-2 [2] = target: T1, MetAP-2; assay: Phase I pilot free MetAP-2 ELISA (streptavidin beads) in white blood cell lysates after a single dose; assay type: in vivo, female Sprague-Dawley rats; conditions: single 30 mg/kg dose IV, IP, PO or SC; female SD rats; all routes of administration
Protocol: MetAP-2 inhibition in white blood cells (WBC) was examined after a single dose (30 mg/kg) of Compound 2 , administered either by intravenous (IV), intraperitoneal (IP), oral gavage (PO) or subcutaneous (SC) routes, to female Sprague-Dawley (SD) rats
A ≧1.0 mL whole blood sample was taken from 3 animals/group/time point (4, 24, 48, 72, 96, and 120 hours post dose) for MetAP-2 analysis. Each animal was bled only once by conscious jugular venipuncture. Blood was immediately placed into EDTA tubes and stored at 4-8° C. Two blood smears from each sample were made for possible differential count analysis.
Blood and tissue samples were collected from SD rats after receiving a single dose of Compound 2. Inhibition of MetAP-2 by Compound 2 was monitored using an ELISA designed to measure the amount of free MetAP-2 in a sample. Cells were lysed and then treated with Compound 1. […] The resulting biotinylated MetAP-2 is captured onto immobilized streptavidin, then detected with an anti-MetAP-2 antibody and an enzyme-linked secondary antibody. Phase I was used as a pilot study to determine if MetAP-2 inhibition could be monitored in female SD rat white blood cell (WBC) lysates after a single 30 mg/kg dose of Compound 2 administered IV, IP, PO or SC. […] Following this analysis it was determined that signal from sample replicates were highly variable and the assay required revision. […]

MetAP-2 [3] = target: T2, MetAP-2 (Mus musculus, UniProt O08663); assay: Free MetAP-2 ELISA in tumor and liver tissue of mice bearing B16F10 murine melanoma tumors; assay type: in vivo, C57BL/6 mice; conditions: 3 or 30 mg/kg PO every other day; samples 24 hours after last dose
T2 construct: from tissue; host or cells: B16F10 murine melanoma tumor and liver of male C57BL/6 mice
T2 sequence (O08663 whole entry): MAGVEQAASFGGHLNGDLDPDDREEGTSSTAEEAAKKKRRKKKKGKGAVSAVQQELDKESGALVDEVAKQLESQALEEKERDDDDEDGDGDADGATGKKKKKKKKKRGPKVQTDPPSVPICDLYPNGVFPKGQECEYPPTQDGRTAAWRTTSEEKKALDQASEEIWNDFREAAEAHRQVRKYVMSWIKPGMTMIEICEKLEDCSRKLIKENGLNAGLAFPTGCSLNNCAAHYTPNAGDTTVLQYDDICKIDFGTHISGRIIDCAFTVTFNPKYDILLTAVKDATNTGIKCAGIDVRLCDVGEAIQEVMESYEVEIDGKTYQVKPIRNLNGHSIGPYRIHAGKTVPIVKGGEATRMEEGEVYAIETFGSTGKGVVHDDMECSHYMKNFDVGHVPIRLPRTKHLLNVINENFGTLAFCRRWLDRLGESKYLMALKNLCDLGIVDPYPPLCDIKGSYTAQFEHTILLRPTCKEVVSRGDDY
Protocol: (§1) Male C57BL/6 mice were divided into six groups of 10 mice each. Each mouse received an implant of 10^6B16F10 murine melanoma cells in 100 μL of PBS above the leg. At day seven following implantation, one group of mice (Group 6) began a regimen of 100 mg/kg Compound 2 every other day, administered oral gavage (PO). At day 13 post implantation, the remaining groups began receiving treatment as follows: Group 1: […] vehicle (11 % hydroxypropyl cyclodextrin) every other day; Group 2: 5-fluorouracil 50 mg/kg in 1% propylene glycol/D5W, PO every other day; Group 3: Compound 2, 3 mg/kg PO every other day; Group 4: Compound 2, 30 mg/kg PO, every other day; Group 5: Compound 2, 100 mg/kg PO, every other day. In each group, the last dose was administered on day 19 post implantation, and blood, spleen, tumor, thymus and liver samples were collected from the mice 24 hours following the last dose.
(§2) The tissue samples were prepared for analysis following the protocols set forth in Example 2 and analyzed for free MetAP-2 using the ELISA protocol of Example 2. The prepared tissue samples were also analyzed for free MetAP-2 activity using the following protocol.
The results of this study are set forth in FIG. 5, which provides a comparison of the results obtained in tumor tissue and liver tissue using the ELISA protocol and those obtained using the gel-shift analysis.

MetAP-2 [4] = target: T2, MetAP-2; assay: Free MetAP-2 gel shift assay with fluorescent fumagillin analogue (Compound 3) in tumor and liver tissue of mice bearing B16F10 murine melanoma tumors; assay type: in vivo, C57BL/6 mice; conditions: 3 or 30 mg/kg PO every other day; samples 24 hours after last dose
Protocol: as §1, §2
1. Dilute samples in 1.5 mL eppendorf tubes to their desired concentration in lysis buffer in 10 uL volume. See calculations.
2. To each tube, add 1 uL of 10 uM Compound 3stock that has been diluted in lysis buffer.
3. Incubate on ice for 1.0 hours. […]

[5] = Phase IIb, 3 mg/kg PO single dose, 48 hr

duration of inhibition of MetAP-2 in WBC (MetAP-2 [1]; Phase IIa, female SD rats, 30 mg/kg PO versus 0.3 and 3 mg/kg PO, single dose): more prolonged inhibition | sex differences in MetAP-2 inhibition (MetAP-2 [1]; Phase IIb, male and female SD rats, 0.3 and 3 mg/kg PO, single dose): no consistent sex differences | effect on free MetAP-2 levels in tissues other than WBC and liver (spleen, thymus, lymph nodes) (MetAP-2 [1]; Phase IIb, 0.3 mg/kg PO, single dose): no significant effect | free MetAP-2 level in WBC, average (±SEM) (MetAP-2 [1]; [5]): 13%±4% | free MetAP-2 level in liver, average (±SEM) (MetAP-2 [1]; [5]): 13%±5% | free MetAP-2 level in lymph nodes, average (±SEM) (MetAP-2 [1]; [5]): 63%±16% | free MetAP-2 level in spleen, average (±SEM) (MetAP-2 [1]; [5]): 41%±5% | free MetAP-2 level in thymus tissue (MetAP-2 [1]; [5]): recovered completely | recovery of free MetAP-2 in WBC, 3 mg/kg versus 0.3 mg/kg group (MetAP-2 [1]; Phase IIb, single PO dose, by 72 hr): recovered to similar free MetAP-2 levels | average free MetAP-2 remaining in tissues when no measurable free MetAP-2 in WBC (MetAP-2 [1]; groups with no measurable free MetAP-2 in the WBC): ≤ 3% | inhibition at 3 mg/kg (MetAP-2 [1]; rat, Phase IIb, 3 mg/kg PO single dose, four hours after dosing, WBC, liver, spleen, thymus, lymph nodes, read-out: average inhibition of MetAP-2 in all compartments): ≥ 95% | free MetAP-2 signal in WBC lysates (MetAP-2 [2]): reduction followed by a recovery | free MetAP-2 levels in liver tissue relative to controls (ELISA) (MetAP-2 [3]): dose-dependent decrease | free MetAP-2 levels in tumor tissue relative to controls (ELISA) (MetAP-2 [3]): dose-dependent decrease | free MetAP-2 levels in liver tissue relative to controls (gel shift) (MetAP-2 [4]): dose-dependent decrease | free MetAP-2 levels in tumor tissue relative to controls (gel shift) (MetAP-2 [4]): dose-dependent decrease
Structure (SMILES): CO[C@@H]1[C@H](OC(=O)N[C@@H](C(N)=O)C(C)C)CC[C@]2(CO2)[C@H]1[C@@]1(C)O[C@@H]1CC=C(C)C [Compound 2, (1-Carbamoyl-2-methyl-propyl)-carbamic acid-(3R, 4S, 5S, 6R )-5-methoxy-4-[(2R, 3R)-2-methyl-3-(3-methyl-but-2-enyl)-oxiranyl]-1-oxa-spiro[2.5]oct-6-yl ester]
rank order of responsiveness of organs (MetAP-2 inhibition relative to WBC) (MetAP-2 [1]; Phase IIb, single PO dose, tissues plotted relative to WBC): liver (most inhibited)>spleen≅lymph nodes>thymus
